According to patent US4317824A, “Derivatives of quinoxaline-1,4-dioxides” (Abic, Ltd., priority 1976, dated 1982):
Converted amounts (≈) assume the structure as drawn.

Tests used:
Staph. Aur. = assay: antimicrobial activity, minimal inhibitory concentration, Staph. Aur.; format: cell-based
Procedure: (§1) The antimicrobial activity of some compounds according to the present invention was measured and the results are shown in the following Tables. The activity is indicated as the minimal inhibitory concentration in μg/ml.

E. Coli [1] = assay: antimicrobial activity, minimal inhibitory concentration, E. Coli; format: cell-based; conditions: Escherichia coli
Procedure: as §1

Salm. Typh. = assay: antimicrobial activity, minimal inhibitory concentration, Salm. Typh.; format: cell-based; conditions: read-out: minimal inhibitory concentration
Procedure: as §1

Shig. Flex. = assay: antimicrobial activity, minimal inhibitory concentration, Shig. Flex.; format: cell-based
Procedure: as §1

B. Cereus = assay: antimicrobial activity, minimal inhibitory concentration, B. Cereus; format: cell-based; conditions: Bacillus cereus
Procedure: as §1

B. Subtilis = assay: antimicrobial activity, minimal inhibitory concentration, B. Subtilis; format: cell-based; conditions: Bacillus subtilis
Procedure: as §1

in vivo = conditions: mouse, po
[2] = Acute oral LD50 in chicks; conditions: chicken, in vivo
[3] = growth promotion experiment with male turkeys for 4 weeks; format: in vivo; conditions: 50 g/ton in the feed, P<0.001
Excerpt: The results were statistically significant (P<0.001).

Trichophyt. Rubrum = assay: antimicrobial activity, minimal inhibitory concentration, Trichophyt. Rubrum; format: cell-based
Procedure: as §1

Mycoplasma gallisept = assay: antimicrobial activity, minimal inhibitory concentration, Mycoplasma gallisept; format: cell-based
Procedure: as §1

E. Coli [4] = assay: Systemic E. Coli infection in mice; format: in vivo; conditions: systemic E. Coli infection, 2,5 mg × 2 per day
Procedure: (§2) Some compounds of general formula Id were tested also in vivo.

St. aur = assay: Systemic St. aur infection in mice; format: in vivo; conditions: systemic St. aur infection, 2,5 mg × 2 per day
Procedure: as §2

Proteus = assay: antimicrobial activity, minimal inhibitory concentration, Proteus; format: cell-based
Procedure: as §1

Crypt. Neof. = assay: antimicrobial activity, minimal inhibitory concentration, Crypt. Neof.; format: cell-based
Procedure: as §1

Cand. Alb. = assay: antimicrobial activity, minimal inhibitory concentration, Cand. Alb.; format: cell-based
Procedure: as §1

Pseud. Aur. = assay: antimicrobial activity, minimal inhibitory concentration, Pseud. Aur.; format: cell-based
Procedure: as §1

CCC(=O)ON=C(Cl)c1c[n+]([O-])c2ccccc2[n+]1[O-] [Y = H, R = CH2CH3]
MIC (Staph. Aur.): 10 µg/mL (≈ 33.8 µM) | MIC (E. Coli [1]): 25 µg/mL (≈ 84.6 µM) | MIC (Salm. Typh.): 25 µg/mL (≈ 84.6 µM) | MIC (Shig. Flex.): 11 to 100 µg/mL (≈ 37.2 to 338 µM) | MIC (B. Cereus): 25 µg/mL (≈ 84.6 µM) | MIC (B. Subtilis): 11 to 100 µg/mL (≈ 37.2 to 338 µM)

[O-][n+]1cc(C(=NO)NN2CCOCC2)[n+]([O-])c2ccccc21 [Example 25, 2-(N-morpholinoamino)-carboxamidoxime-quinoxaline-1,4-dioxide]
LD50 (in vivo): 1240 mg/kg | LD50 [2]: 428 mg/kg

CN1CCN(C(=NO)c2c[n+]([O-])c3ccccc3[n+]2[O-])CC1 [Example 26a, 2-(4'-methyl-piperazino)-carboxaldoxime-quinoxaline-1,4-dioxide]
LD50 (in vivo): 1240 mg/kg | increase in weight gain [3]: 15.6% | LD50 [2]: 400 mg/kg

[O-][n+]1cc(C(Cl)=NO)[n+]([O-])c2ccccc21 [Example 6, 2(α-chloro)-carboxaldoxime-quinoxaline-1,4-dioxide]
MIC (Staph. Aur.): 25 µg/mL (≈ 104 µM) | MIC (E. Coli [1]): 25 µg/mL (≈ 104 µM) | MIC (Trichophyt. Rubrum): 11 to 100 µg/mL (≈ 45.9 to 417 µM) | MIC (Shig. Flex.): 11 to 100 µg/mL (≈ 45.9 to 417 µM) | MIC (B. Cereus): 25 µg/mL (≈ 104 µM) | MIC (Mycoplasma gallisept): 25 to 50 µg/mL (≈ 104 to 209 µM) | MIC (B. Subtilis): 11 to 100 µg/mL (≈ 45.9 to 417 µM)

CC(=O)NNC(=NO)c1c[n+]([O-])c2ccccc2[n+]1[O-] [Example 24, 2-N-(acetyl-hydrazino)-carboxaldoxime-quinoxaline-1,4-dioxide]
MIC (Staph. Aur.): 10 µg/mL (≈ 36.1 µM) | MIC (E. Coli [1]): 11 to 100 µg/mL (≈ 39.7 to 361 µM) | MIC (Trichophyt. Rubrum): 11 to 100 µg/mL (≈ 39.7 to 361 µM) | MIC (Salm. Typh.): 11 to 100 µg/mL (≈ 39.7 to 361 µM) | MIC (B. Cereus): 11 to 100 µg/mL (≈ 39.7 to 361 µM) | Protection (E. Coli [4]): + (indicates protection >80%) | Protection (St. aur): + (indicates protection >80%) | MIC (Proteus): 11 to 100 µg/mL (≈ 39.7 to 361 µM)

O=C(ON=C(Cl)c1c[n+]([O-])c2ccccc2[n+]1[O-])c1ccc([N+](=O)[O-])cc1 [Example 14]
MIC (Trichophyt. Rubrum): 11 to 100 µg/mL (≈ 28.3 to 257 µM) | MIC (Salm. Typh.): 11 to 100 µg/mL (≈ 28.3 to 257 µM) | MIC (Shig. Flex.): 11 to 100 µg/mL (≈ 28.3 to 257 µM) | MIC (Mycoplasma gallisept): 50 µg/mL (≈ 129 µM)

[O-][n+]1cc(C(Cl)=NO)[n+]([O-])c2cc(Cl)ccc21 [Example 8, 2-(α-chloro)-carboxaldoxime-7-chloro-quinoxaline-1,4-dioxide]
MIC (Staph. Aur.): 25 µg/mL (≈ 91.2 µM) | MIC (E. Coli [1]): 25 µg/mL (≈ 91.2 µM) | MIC (Trichophyt. Rubrum): 11 to 100 µg/mL (≈ 40.1 to 365 µM) | MIC (Shig. Flex.): 11 to 100 µg/mL (≈ 40.1 to 365 µM) | MIC (B. Cereus): 10 µg/mL (≈ 36.5 µM) | MIC (Mycoplasma gallisept): 10 to 25 µg/mL (≈ 36.5 to 91.2 µM) | MIC (B. Subtilis): 11 to 100 µg/mL (≈ 40.1 to 365 µM)

Cc1ccc2c(c1)[n+]([O-])c(C(Cl)=NO)c[n+]2[O-] [Example 7, 2-(α-chloro)-carboxaldoxime-7-methyl-quinoxaline-1,4-dioxide]
MIC (Staph. Aur.): 25 µg/mL (≈ 98.6 µM) | MIC (E. Coli [1]): 25 µg/mL (≈ 98.6 µM) | MIC (Crypt. Neof.): 50 µg/mL (≈ 197 µM) | MIC (Trichophyt. Rubrum): 25 µg/mL (≈ 98.6 µM) | MIC (Shig. Flex.): 11 to 100 µg/mL (≈ 43.4 to 394 µM) | MIC (B. Cereus): 25 µg/mL (≈ 98.6 µM) | MIC (Cand. Alb.): 25 µg/mL (≈ 98.6 µM) | MIC (B. Subtilis): 11 to 100 µg/mL (≈ 43.4 to 394 µM)

CCN(CC)C(=NO)c1c[n+]([O-])c2ccccc2[n+]1[O-] [Example 22, 2-(N-diethylamino)-carboxaldoxime-quinoxaline-1,4-dioxide]
MIC (Staph. Aur.): 11 to 100 µg/mL (≈ 39.8 to 362 µM) | MIC (E. Coli [1]): 50 µg/mL (≈ 181 µM) | MIC (Salm. Typh.): 50 µg/mL (≈ 181 µM) | MIC (Pseud. Aur.): 10 µg/mL (≈ 36.2 µM) | MIC (B. Cereus): 11 to 100 µg/mL (≈ 39.8 to 362 µM)

CN1CCN(C(=NO)c2c[n+]([O-])c3ccccc3[n+]2[O-])CC1 [drawing 6]
MIC (Staph. Aur.): 25 µg/mL (≈ 82.4 µM) | MIC (E. Coli [1]): 25 µg/mL (≈ 82.4 µM) | MIC (Pseud. Aur.): 11 to 100 µg/mL (≈ 36.3 to 330 µM) | MIC (B. Cereus): 25 µg/mL (≈ 82.4 µM) | MIC (Mycoplasma gallisept): 10 µg/mL (≈ 33 µM) | MIC (Proteus): 11 to 100 µg/mL (≈ 36.3 to 330 µM)

CC(=O)ON=C(Cl)c1c[n+]([O-])c2ccc(C)cc2[n+]1[O-] [Example 12, 2-[α-chloro-(0-acetyl)-7-methyl-quinoxaline]-1,4-dioxide]
MIC (Crypt. Neof.): 10 µg/mL (≈ 33.8 µM) | MIC (Trichophyt. Rubrum): 1 µg/mL (≈ 3.38 µM) | MIC (Shig. Flex.): 11 to 100 µg/mL (≈ 37.2 to 338 µM) | MIC (Cand. Alb.): 10 µg/mL (≈ 33.8 µM) | MIC (B. Subtilis): 11 to 100 µg/mL (≈ 37.2 to 338 µM)

CN(C)NC(=NO)c1c[n+]([O-])c2ccccc2[n+]1[O-] [Example 21e, 2-(α-N-dimethyl-hydrazino)-carboxaldoxime-quinoxaline-1,4-dioxide]
MIC (Staph. Aur.): 10 to 25 µg/mL (≈ 38 to 95 µM) | MIC (E. Coli [1]): 2 to 10 µg/mL (≈ 7.6 to 38 µM) | MIC (Salm. Typh.): 100 µg/mL (≈ 380 µM) | MIC (B. Cereus): 10 µg/mL (≈ 38 µM) | MIC (Mycoplasma gallisept): 25 µg/mL (≈ 95 µM)
